Consider one molecule from patent US11406707B2, “STAT3 phosphorylation during graft-versus-host disease” (H. LEE MOFFITT CANCER CENTER AND RESEARCH INSTITUTE, INC., priority 2014, dated 2022).

Structures are written as SMILES.

Holding throughout (type): cell-based, human
Series [1] relates to DC-allosensitized T-cell proliferation. The series can be described thus: allo-MLR T-cell proliferation (colorimetric MTS assay, stimulation index). Conditions: for T-cell proliferation: day 5. How it is done:
Allo-MLRs consisted of T cells stimulated by cytokine-mature moDCs (DC:T-cell ratio 1:30, 1×10^5 T cells per 100 μl medium in a 96-well plate, 37° C.). […] The allogeneic moDC stimulators were matured with a cytokine cocktail and terminally differentiated, eliminating the need for irradiation [Betts, B. C., et al. (2011) Blood 118, 5330-5339]. T-cell proliferation was quantified by a colorimetric assay (CellTiter 96 AQueous One Solution Cell Proliferation Assay [MTS]; Promega, Madison, Wis.) on day 5, per the manufacturer's instructions, with absorbance quantified at 490 nm [Betts, B. C., et al. (2011) Blood 118, 5330-5339]. The stimulation index was calculated by dividing the OD of the allo-MLR by the OD of T cells alone. PHA-stimulated T cells served as a positive control. Identical allo-MLRs were cultured with CAS 285986-31-4, to determine the dose-response effect of STAT5 inhibition on allostimulated T-cell growth. For these initial experiments, the cultures were analyzed on day 4 because of the early rapid T-cell proliferation among the STAT5 inhibitor-treated wells. The stimulation index was determined as described.
A general note: Tetrazolium assays rely on reduction of a dye to a coloured formazan, in cell work by metabolically active cells.

Series [2] concerns T cells. The series can be described thus: T-cell viability by Live/Dead staining in treated allo-MLRs. How it is done: Fluorochrome-conjugated mouse anti-human mAbs included anti-CD3, -CD4, -CD8, -CD25, -CD45RO, -CD107a, -CD127, -Foxp3, -pSTAT3/pY705, -pSTAT5/pY694, -IFN-, and -IL-17A (BD Biosciences, San Jose, Calif. USA; eBioscience; San Diego, Calif., USA; Invitrogen; Carlsbad, Calif., USA). Viability was assessed by Live/Dead staining (Invitrogen). Live events were acquired on FACSCalibur or LSRII (BD Biosciences) flow cytometers (FlowJo software, ver. 7.6.4; TreeStar, Ashland, Oreg., USA). Gates were defined by appropriate isotype controls. Naive T-cell sorting was performed on the FACSVantageDiVa (BD Biosciences). Where indicated, CD4^+ T cells were purified by magnetic-bead negative selection (Miltenyi Biotec, Auburn, Calif., USA).

In series [3] the test system is TH17 cells. Briefly: Evaluation of TH17 responses (CD4+ IL-17A+ T cells, IL-17A ELISA). How it is done: To optimize the detection of IL-17A producing cells, nylon-wool-purified T cells underwent CD4^+ magnetic-bead selection. The CD4^+ T cells were cultured in triplicate with allogeneic, mature moDCs (DC:T cell ratio 1:30, 1×10^6 T cells/1 ml medium in a 48-well plate, 37° C.) and treated with S3I-201 (50 or 100 μM) or DMSO. The medium was supplemented with IL-6 (10^5 IU/ml), TGF-β (4 ng/ml), and anti-IFN-γ mAb (10 μg/ml) to support TH17 growth. The T cells were harvested and stimulated with PMA/ionomycin for 5 h, with GolgiStop Protein Transport Inhibitor (BD Biosciences) added after 1 h of activation. TH17 cells were identified by surface CD3 and CD4 expression, followed by intracellular staining for IL-17A. The absolute number of IL-17A-producing CD4^+ T cells was obtained by timed acquisition.
The concentration of IL-17A was measured (anti-human IL-17A [homodimer] ELISA Ready-Set-Go; eBioscience) in the supernatant of identically prepared and drug-treated CD4 T-cell allo-MLRs (DC:T cell ratio 1:30, 1.5×10^5 T cells per 125 μl medium in a 96-well plate, 37° C.). After 5 days, PMA/ionomycin was added directly to the cultures and stimulated for 5 h. GolgiStop was omitted from the PMA/ionomycin activation step, to permit detection of IL-17A in the culture supernatants. The supernatants were collected, and the IL-17A protein concentration was measured in triplicate, per the manufacturer's instructions.

For series [4], the system named is primed T-cells. Briefly: Secondary alloMLR (3-day restimulation of primed T-cells) proliferation. The source says:
Bulk donor T-cells were allostimulated with cytokine-matured, allogeneic moDCs at a DC:T-cell ratio of 1:30 as previously described (Florida Blood Services) [Betts, B C, et al. (2011) Blood 118:5330-9; Betts, B C, et al. […] Betts, B C, et al. (2011) Blood 118:5340-3]. […] Lower doses of each drug were used in these experiments to mimic expected physiologic concentrations [Siddiquee, K, et al. (2007) Proceedings of the National Academy of Sciences of the United States of America 104:7391-6; Zeiser, R, et al. (2008) Blood 111:453-62], and to better detect potential synergistic activity with the combination of rapamycin and S3I-201. After 5 days of culture at […]-cell proliferation was measured by a colorimetric assay per the manufacturer's instructions (CellTiter 96 Aqueous One Solution Cell Proliferation Assay [MTS]; Promega, Madison, Wis. USA) [Betts, B C, et al. (2011) Blood 118:5330-9; Betts, B C, et al. […] Betts, B C, et al. (2011) Blood 118:5340-3]. Absorbance/optical density (OD) was analyzed at 490 nm. Secondary alloMLR: […] Following priming, the T-cells were then rested and re-cultured with fresh first-party moDCs (DC:T-cell ratio of 1:30). […] After 3 days, T-cell proliferation was measured by a colorimetric assay as described (Promega). T-cells alone and PHA-stimulated T-cells served as negative and positive controls, respectively, for both the primary and secondary alloMLRs.

The mark [5] stands for this setting: S3I-201 50 or 100 μM, 5 day coculture with IL-6, TGF-β, anti-IFN-γ mAb.

For `Cc1ccc(S(=O)(=O)OCC(=O)Nc2ccc(C(=O)O)c(O)c2)cc1` [S3I-201], the “reduction in T-cell proliferation” value in series [1] (S3I-201 50 μM added once day 0, readout day 5) amounted to 50%. The T-cell proliferation entry in series [1] (S3I-201 100 μM) was “complete impairment”; in series [1] (S3I-201 1 or 10 μM), “little effect”. The “T-cell proliferation in allo-MLRs compared with DMSO” value in series [1] (S3I-201 50 or 100 μM, FIG. 1B) is “significantly reduced”. For the same molecule, the T-cell viability entry in series [2] (S3I-201 50 μM) is recorded as “preserved”. Moreover, the “T-cell viability (viability staining)” value in series [2] (S3I-201 100 μM) is recorded as “toxicity”. For the same molecule, the “absolute numbers of CD4+, IL-17A+ T cells compared with DMSO” value in series [3] (setting [5]) is “significant reduction”. The “frequency of CD4+, IL-17A+ T cells compared with DMSO” value in series [3] (setting [5]) is recorded as “significant reduction”. The “IL-17A protein concentration in coculture supernatants” value in series [3] (S3I-201, 5 day coculture, ELISA) is given as “significant decrease”. Moreover, the inhibition at 50 µM in series [4] (Homo sapiens, T-cell, S3I-201 50 μM, read-out: inhibition of proliferation in comparison to DMSO) turned out to be 67%. Also, in series [4] (S3I-201 50 μM alone), the “proliferation of primed T-cells on rechallenge” value is on record as “significantly suppressed”.
